# Laboratory results taken from publication PMC12040169 (PLOS Biology, 2025).
# Test: in vitro
# Conditions: human, hela cells, % viability
row,SMILES,"viability at 28.5 h, 10 µM"
1,CC(C)[C@H](NC(=O)Cc1n[nH]c(=O)c2ccccc12)C(=O)O [CBK286607],95.2%
2,O=C(O)C[C@]1(C(=O)Nc2ccc(F)cc2)CC(/C=C/c2ccccc2)=NO1 [CBK286608],87.3%
3,CC(C)(CO)C(O)C(=O)NC1CCCC(C(=O)O)C1 (stereo not drawn) [CBK286609],96%
4,O=C(O)CCC(=O)Nc1ccc2c(c1)Cc1ccccc1-2 [CBK286611],94.9%
5,O=C(O)c1ccc(NC(=O)c2cc(-n3cnnc3)ccc2Cl)cc1 [CBK286613],111%
6,Cc1nc(=O)c(-c2ccccc2)c(C)n1-c1ccc(OCC(=O)O)cc1 [CBK286615],106%
7,O=C(O)c1ccc(OCC(O)Cn2nnc3ccccc32)cc1 (stereo not drawn) [CBK286616],103%
8,CC1CN(C(=O)/C=C/C(=O)O)c2ccccc2NC1=O (stereo not drawn) [CBK286618],108%
9,CC(C)C[C@H](NC(=O)NCCN1CCOCC1)C(=O)O [CBK286619],99.4%
10,O=C(CC(C(=O)O)c1c[nH]c2ccccc12)c1ccc(Cl)cc1 (stereo not drawn) [CBK286620],86.7%
11,O=C(O)c1nccnc1C(=O)N1CCC(O)(c2ccc(Cl)cc2)CC1 [CBK286621],87.6%
12,CC(=O)Nc1cc(NC(C)=O)c(C)c(C(=O)O)c1 [CBK286623],88.6%
13,O=C(O)C(c1c[nH]c2ccccc12)N1CCN(Cc2ccncc2)CC1 (stereo not drawn) [CBK286624],76.2%
14,O=C(O)C1Cc2ccccc2CN1C(=O)c1ccccc1 (stereo not drawn) [CBK286628],102%
15,O=C(O)c1ccc2c(c1)c(C(C(=O)O)N1CCCC1)cn2Cc1ccccc1 (stereo not drawn) [CBK286633],90.1%
16,COc1ccc(OC)c2c1cc(C(=O)NC[C@H]1CC[C@H](C(=O)O)CC1)n2C [CBK286636],86.1%
17,COc1ccc2c(c1)c(C(C(=O)O)N1CCN(c3ccccn3)CC1)cn2CC(=O)O (stereo not drawn) [CBK286637],98%
18,O=C(O)CCNc1cc2ccccc2cc1C(=O)O [CBK286640],80.7%
19,COc1cccc(C2=NO[C@@](CC(=O)O)(C(=O)NCc3ccccc3)C2)c1OC [CBK286641],83.4%
20,CC(C)C(=O)Nc1ccc2[nH]cc(C(C(=O)O)N3CCN(c4ccccc4)CC3)c2c1 (stereo not drawn) [CBK286645],85.7%
21,Nc1cc(S(=O)(=O)C(F)(F)F)ccc1C(=O)O [CBK286646],87%
22,CCCCC(NC(=O)c1cc2ccccc2[nH]1)C(=O)O (stereo not drawn) [CBK286647],85.9%

row,SMILES,"viability at 28.5 h, 10 µM"
1,O=C(CC(CN1CCN(c2ccccn2)CC1)C(=O)O)NCc1ccccc1 (stereo not drawn) [CBK286649],89%
2,O=C(O)COc1ccc(/C=C/c2nc3n(n2)C=COc2ccccc2-3)cc1 [CBK286650],80.2%
3,O=C(O)Cc1nnc(CNc2ccc(Cl)cc2)[nH]1 [CBK286651],81.7%
4,CN1CCN(C(C(=O)O)c2c[nH]c3cc(OCc4ccccc4)ccc23)CC1 (stereo not drawn) [CBK286654],84.6%
5,CC(C)C[C@H](NC(=O)COc1ccc2nc3n(c(=O)c2c1)CCCCC3)C(=O)O [CBK286656],88.3%
6,CCOc1ccc(C(=O)CCNCC(=O)O)cc1 [CBK286657],94.4%
7,O=C(O)/C=C/C(=O)N(Cc1ccccn1)Cc1ccco1 [CBK286660],84.2%
8,Cc1nn(Cc2ccc(Cl)cc2)c(C)c1C(N)C(=O)O (stereo not drawn) [CBK286661],89.7%
9,CC(=O)c1ccc(NC(=O)[C@@]2(CC(=O)O)CC(c3ccc(F)cc3)=NO2)cc1 [CBK286663],85%
10,O=C(O)C(c1c[nH]c2ccccc12)N1CCc2ccccc2C1 (stereo not drawn) [CBK286664],84.5%
11,O=C(CCn1ccc2ccc(F)cc21)NC[C@H]1CC[C@H](C(=O)O)CC1 [CBK286666],86.2%
12,C=C(C)CN1CCN(C(C(=O)O)c2c[nH]c3ccc(OCc4ccccc4)cc23)CC1 (stereo not drawn) [CBK286668],80.6%
13,CC(C)C(NC(=O)N1c2ccccc2NC(=O)C1C(C)C)C(=O)O (stereo not drawn) [CBK286670],100%
14,O=C(COc1ccc(Br)cc1C(=O)O)Nc1ccc(F)cc1 [CBK286671],92%
15,O=C(O)CC1(O)C(=O)N(Cc2ccccc2)c2ccccc21 (stereo not drawn) [CBK286673],104%
16,Cc1c(CC(=O)O)c(=O)oc2cc(OCc3ccc(F)cc3)ccc12 [CBK286674],103%
17,COc1ccc2[nH]cc(C(C(=O)O)N3CCCCC3)c2c1 (stereo not drawn) [CBK286676],85.3%
18,CCOc1ccc(Cc2nnnn2CC(=O)O)cc1 [CBK286677],91.2%
19,Cc1ccc(C)c(NC(=O)N[C@@H](CC(C)C)C(=O)O)c1 [CBK286678],89%
20,O=C(O)CCC(=O)NCC1(c2ccccc2)CCCC1 [CBK286679],89.7%
21,CC(=O)N1CCN(C(C(=O)O)c2c[nH]c3cc(NC(=O)c4ccccc4)ccc23)CC1 (stereo not drawn) [CBK286680],84.9%
22,CN(C)S(=O)(=O)N1CCC(C(=O)O)(c2ccccc2)CC1 [CBK286681],90.3%

row,SMILES,"viability at 28.5 h, 10 µM"
1,O=C(O)C1CCN(C(=O)CCN2C(=O)[C@@H]3Cc4ccccc4CN3C2=O)CC1 [CBK286682],88.2%
2,O=C(O)c1ccccc1SC1CCc2ccccc2NC1=O (stereo not drawn) [CBK286683],83.1%
3,O=C(O)c1ccc(S(=O)(=O)N(CC2CC=CCC2)CC2CCCO2)cc1 (stereo not drawn) [CBK286685],101%
4,O=C(O)C(c1c[nH]c2ccc(OCc3ccccc3)cc12)N1CCCC1 (stereo not drawn) [CBK286686],97.6%
5,COc1ccc2c(ccn2CC(=O)NC[C@H]2CC[C@H](C(=O)O)CC2)c1 [CBK286687],110%
6,CCOC(=O)N1CCN(C(C(=O)O)c2c[nH]c3cc(OCc4ccccc4)ccc23)CC1 (stereo not drawn) [CBK286689],97%
7,O=C(CNC(=O)c1ccccc1C(=O)O)Nc1ccccc1 [CBK286690],94.1%
8,COc1ccccc1N1CCN(c2ccc([N+](=O)[O-])cc2C(=O)O)CC1 [CBK286692],96.3%
9,CCOc1ccc2c(c1)C(=O)c1cc(OCC(=O)O)ccc1-2 [CBK286693],94.3%
10,CCNC(=O)CN1CCN(C(C(=O)O)c2c[nH]c3ccc(C)cc23)CC1 (stereo not drawn) [CBK286694],98%
11,CN1CCN(C(C(=O)O)c2cn(CCC(=O)O)c3ccc(Br)cc23)CC1 (stereo not drawn) [CBK286698],103%
12,COc1ccc(C(CNC(=O)C2C(C(=O)O)C2(C)C)N(C)C)cc1 (stereo not drawn) [CBK286700],110%
13,COc1cccc(N2CCN(C(C(=O)O)c3cn(C)c4cc(C(=O)O)ccc34)CC2)c1 (stereo not drawn) [CBK286701],114%
14,O=C(O)C[C@H](CNC(=O)COc1ccc2ccc(=O)oc2c1)c1ccc(Cl)cc1 [CBK286702],113%
15,COc1ccc(-c2nc3c(c(SCC(=O)O)n2)COC(C)(C)C3)cc1 [CBK286704],107%
16,O=C(O)C(Cc1c[nH]cn1)N1C(=O)C2C3C=CC(C3)C2C1=O (stereo not drawn) [CBK286705],88%
17,Cc1ccc(S(=O)(=O)NC[C@H]2CC[C@H](C(=O)O)CC2)cc1 [CBK286706],96.1%
18,O=C(O)CCCCCNc1ccc(C(F)(F)F)cc1[N+](=O)[O-] [CBK286707],83.3%
19,O=C(N[C@@H](Cc1ccccc1)C(=O)O)c1cccc2c1-c1ccccc1C2=O [CBK286710],92.1%
20,CCn1cc(C(=O)N2CCC(C(=O)O)CC2)c(=O)c2cc3c(cc21)OCO3 [CBK286713],111%
21,O=C(O)CNC(=O)[C@H]1CC[C@H](Cn2cnc3ccccc3c2=O)CC1 [CBK286714],97%
22,O=C(O)C[C@]1(C(=O)NC2CCCCCC2)CC(c2ccc(Cl)cc2)=NO1 [CBK286716],92.3%

row,SMILES,"viability at 28.5 h, 10 µM"
1,CCN1CCN(C(=O)c2nccnc2C(=O)O)CC1 [CBK286718],88.8%
2,CC(C)(C)OC(=O)N[C@@H](Cc1ccccc1)C(=O)NC[C@H]1CC[C@H](C(=O)O)CC1 [CBK286719],81.9%
3,CC(C)CCNC(=O)CC(=O)Nc1ccc(C(=O)O)cc1 [CBK286721],85.5%
4,CC(C)[C@H](NC(=O)C1CC(=O)N(c2ccc(F)cc2)C1)C(=O)N1CCCC1C(=O)O (stereo partly drawn) [CBK286723],95%
5,O=C(O)c1ccc(CSc2nnnn2-c2ccccc2)cc1 [CBK286726],85.1%
6,COc1ccc2c(C)c(CCC(=O)N(C)CC(=O)O)c(=O)oc2c1 [CBK286731],87%
7,C[C@H](NC(=O)C1CC(=O)N(c2ccc(F)cc2)C1)C(=O)N1CCC(C(=O)O)CC1 (stereo partly drawn) [CBK286733],79.7%
8,Cc1nn(-c2ccc(C(=O)O)cc2)c2c1C(=O)CC(C)(C)C2 [CBK286734],86.4%
9,O=C(O)[C@@H]1CC(O)CN1C(=O)c1ccc2noc(-c3ccccc3)c2c1 (stereo partly drawn) [CBK286736],86.1%
10,CC1(C(=O)O)COC(c2ccc([N+](=O)[O-])cc2)OC1 (stereo not drawn) [CBK286737],87.1%
11,Cc1ccc(N2CCCn3c2nc2c3c(=O)n(CC(=O)O)c(=O)n2C)cc1 [CBK286740],90.5%
12,C[C@H](NC(=O)OC(C)(C)C)C(=O)NC[C@H]1CC[C@H](C(=O)O)CC1 [CBK286741],98.7%
13,O=C(O)c1cccc(OCc2nnnn2-c2ccc(Br)cc2)c1 [CBK286744],82.7%
14,O=C(O)C1CCC(CNC(=O)C2Cc3ccccc3CN2)CC1 (stereo not drawn) [CBK286745],84.6%
15,O=C(CCN1C(=O)[C@@H]2Cc3ccccc3CN2C1=O)N[C@H](C(=O)O)c1ccccc1 [CBK286751],88.7%
16,O=C(O)CCCC(=O)N1N=C(c2ccccc2)CC1c1ccc2nccnc2c1 (stereo not drawn) [CBK286752],89.4%
17,O=C(O)C1CCCN(C(=O)COc2cc3oc(=O)cc(-c4ccccc4)c3cc2Cl)C1 (stereo not drawn) [CBK286753],90.9%
18,CC(=O)NC(CSc1cc(C)nc2ccccc12)C(=O)O (stereo not drawn) [CBK286755],87.4%
19,O=C(Cc1ccccc1C(=O)O)Nc1ccc(-n2cncn2)c(Cl)c1 [CBK286756],85.7%
20,CCCC(CCC(=O)Nc1ccccc1Cl)C(=O)O (stereo not drawn) [CBK286757],120%
21,CC(=O)N1CCC2(CC1)NC(=O)N(c1ccc(C(=O)O)cc1)N2 [CBK286758],103%
